Data from PubChem BioAssay AID179 (DTP/NCI, 2004).
The source made the active and inactive calls.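 How the source made its calls: active means compounds giving half or more protection of infected cells from virus-caused growth loss, again on retest; inactive means the rest.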

System: CEM cells HIV-1 protection, formazan growth assay
Test: NCI AIDS Antiviral Assay
Conditions: for IC50: measured here: growth of uninfected CEM cells
Summary of the method: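 Steps: treat uninfected and HIV-1-infected human CEM cells at five drug levels; quantify growth by soluble formazan; retest any compound reaching 50% protection; classify actives from the retest.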

| Structure (SMILES) | EC50 [µM] | IC50 [µM] | outcome |
| --- | --- | --- | --- |
| NNc1c(C(N)=O)c2c(N)ncnc2n1C1OC(CO)C(O)C1O (stereo unspecified) | > 0.2 | 0.00912 | – |
| COc1cccc(C2NC(=O)c3c(n[nH]c3N)S2)c1O (stereo unspecified) | > 200 | > 200 | – |
| CCOC(=O)/C(C#N)=C/c1[nH]c(C(=O)OCc2ccccc2)c(C)c1C | – | – | inactive |
| NNC(=Nc1ccccc1)SCc1ccccc1 | – | – | inactive |
| O=c1[nH]c(=S)[nH]n1C(=S)n1[nH]c(=S)[nH]c1=O | > 200 | > 200 | – |
| CC(=O)/C=C/c1cccc(N=S)c1 | > 2.82 | > 2.82 | – |
| OC1C=CC2C(CC1)C1(c3ccccc3)OC2(c2ccccc2)c2ccccc21 (stereo unspecified) | – | – | inactive |
| C[C@@H]([C@H]1[C@H](O)C[C@@]2(C)[C@@H]3C=C[C@H]4C(C)(C)[C@@H](N(C)C)CC[C@@]45C[C@@]35CC[C@]12C)N(C)C | > 100 | > 100 | – |
| O=c1[nH]c2c(c(=O)[nH]1)SC(c1ccccc1)C2 (stereo unspecified) | > 200 | > 200 | – |
| O=C(Nc1ccc(/C=C\c2ccc(NC(=O)c3ccc4ccccc4c3O)cc2S(=O)(=O)O)c(S(=O)(=O)O)c1)c1ccc2ccccc2c1O | 126 | > 200 | – |
| CS(=O)(=O)OCCN1CCN(C(=O)c2ccc(Cl)c3c(Nc4ccc(S(=O)(=O)N=C(N)N)cc4)c4ccccc4nc23)CC1 | > 33.9 | > 33.9 | – |
| Cc1ccc(C=C2C(=O)NC(=O)NC2=O)cc1 | > 155 | > 155 | – |
| CN1C(=O)/C(=C2\SC(=O)N(CN3CCCCC3)C2=O)c2cc(Br)ccc21 | > 200 | 91.2 | – |
| COc1ccc(-n2nnnc2C2(Nc3ccccc3)CCN(Cc3ccccc3)CC2)cc1 | > 200 | > 200 | – |
| Cc1cn(C2CC(F)C(COC(=O)CCCCCCCCCCCN=[N+]=[N-])O2)c(=O)[nH]c1=O (stereo unspecified) | 0.000631 | 2 | – |
| O=C(c1nc2ccc(Cl)cc2[nH]c1=O)C(O)c1ccco1 (stereo unspecified) | > 8.13 | 2.57 | – |
| CCCc1cc(=O)oc2c3c(c4c(c12)OC(C)(C)[C@H](OC(=O)c1ccc(Br)cc1)[C@@H]4OC(=O)c1ccc(Br)cc1)O[C@@H](C)[C@H](C)[C@@H]3OC(=O)c1ccc(Br)cc1 | > 200 | > 200 | – |
| O=C(NP(=O)(N1CC1)N1CC1)c1cc(I)ccc1I | > 200 | 3.98 | – |
| Oc1cc2cccc[n+]2c2cccc(Cl)c12 | > 200 | 34.7 | – |
| Nc1c(S(=O)(=O)O)cc2cc(S(=O)(=O)O)ccc2c1N=Nc1ccc(CCc2ccc(N=Nc3c(N)c(S(=O)(=O)O)cc4cc(S(=O)(=O)O)ccc34)cc2S(=O)(=O)O)c(S(=O)(=O)O)c1 | 7.59 | 60.3 | – |
| O=C1NC(=S)S/C1=C\c1ccc(Cl)cc1 | > 74.1 | 66.1 | – |
| C/C(=N\NC(N)=S)C(CN(CC(C)C)CC(C)C)C(=O)Nc1ccc(C)cc1C (stereo unspecified) | > 85.1 | > 85.1 | – |
| C=CC1=CSNN1 | > 437 | 347 | – |
| COc1cc(Nc2cnc3cc(C(F)(F)F)ccc3n2)cc(OC)c1OC | > 50.1 | > 50.1 | – |
| C=C1CC[C@@H]2C(C)(C)C(O)CCC2(C)C1COc1ccc2ccc(=O)oc2c1 (stereo partly specified) | > 67.6 | 36.3 | – |
| Cn1c(=O)oc2nc(-c3ccccc3)cc(C(F)(F)F)c21 | > 200 | 19.1 | – |
| S=C(SSC(=S)N1CCCCC1)N1CCCCC1 | > 200 | 29.5 | – |

| Structure (SMILES) | EC50 [µM] | IC50 [µM] | outcome |
| --- | --- | --- | --- |
| COC(=O)CCc1ccc2c(c1)CCC2 | > 200 | > 200 | – |
| O=C1c2ccccc2C(=O)N1/N=C1/SC(=Nc2ccccc2)C(=Nc2ccccc2)N1c1ccccc1 | – | – | inactive |
| O=C1OCC/C1=C\c1ccc2c(c1)OCO2 | > 45.7 | > 45.7 | – |
| CN(CCC#N)c1ccc(/C=C2\SC(=S)NC2=O)cc1 | > 200 | 34.7 | – |
| Clc1c2ncccc2cc2n[nH]nc12 | > 200 | > 100 | – |
| Brc1ccc2nc(-c3ccccc3)c3ccccc3c2c1 | > 200 | > 200 | – |
| Nc1ncnc2c1ncn2C1CC(CO)C(CO)O1 (stereo unspecified) | – | – | inactive |
| CC(OC(=O)C(CC(=O)OC(C)(C)C)NC(=O)OC(C)(C)C)C(=O)OCc1ccccc1 (stereo unspecified) | > 200 | > 200 | – |
| Cc1c(Cc2cc(C(C)(C)C)c(O)c(C(C)(C)C)c2)c(C)c(Cc2cc(C(C)(C)C)c(O)c(C(C)(C)C)c2)c(C)c1Cc1cc(C(C)(C)C)c(O)c(C(C)(C)C)c1 | – | – | inactive |
| CC1CC(C)CC(NC2=NCCO2)C1 (stereo unspecified) | > 200 | > 200 | – |
| CC1=C(Br)C(c2ccccc2)=Nc2ccccc2N1 | > 200 | 33.1 | – |
| CSC(SC)=C(C#N)C(=O)Nc1cccc(Cl)c1 | > 200 | 30.2 | – |
| NC(=O)C12C3C4C1C1C2C3C41C(N)=O (stereo unspecified) | > 70.8 | > 70.8 | – |
| CSC1SCC2C(=O)N(C)C(C(C)C)C(=O)OCC(NC(=O)c3cnc4ccccc4n3)C(=O)NC(C)C(=O)N(C)C1C(=O)N(C)C(C(C)C)C(=O)OCC(NC(=O)c1cnc3ccccc3n1)C(=O)NC(C)C(=O)N2C (stereo unspecified) | > 0.12 | 0.000355 | – |
| COc1cc2c(c(O)c1OC)C(O)C1CCC(=O)N1C2c1ccc2c(c1)OCO2 (stereo unspecified) | > 200 | 135 | – |
| Nc1nc(Cl)c(C=O)c(NCC2(CO)CC(CCc3ccccc3)C2)n1 (stereo unspecified) | > 200 | 3.98 | – |
| Cc1c2c(c(C)n1-c1ccccc1)C(=O)N(CCCCN1CCN(c3ccccc3)CC1)C2=O | > 200 | 8.91 | – |
| CCCCCCCCCCCCCCCC(=O)Nc1ccn(C2CCC(COP(=O)(O)OCC3OC(n4ccc(NC(=O)CCCCCCCCCCCCCCC)nc4=O)CC3OP(=O)(O)OCC3OC(n4cc(C)c(=O)[nH]c4=O)CC3N=[N+]=[N-])O2)c(=O)n1 (stereo unspecified) | 0.0282 | 15.1 | – |
| c1ccc(P(CCP(CCP(c2ccccc2)c2ccccc2)c2ccccc2)CCP(c2ccccc2)c2ccccc2)cc1 (stereo unspecified) | > 10.7 | > 10.7 | – |
| C/C1=C\C(=O)OC2CC(CCC(C)/C=C/CC1)OC(O)(C1CSC(=O)N1)C2 (stereo unspecified) | > 129 | 3.98 | – |
| O=C(N/C(=C\c1c(O)ccc2ccccc12)c1nc2ccccc2[nH]1)c1ccccc1 | > 22.4 | > 22.4 | – |
| Cn1c(=N)n(CC(=O)NC23CC4CC(CC(C4)C2)C3)c2ccccc21 | > 347 | 66.1 | – |
| CCOC(=O)c1cn2c(ccc3sc4ccccc4c(=O)c32)n1 | > 200 | > 200 | – |
| Cc1ccc(S(=O)(=O)C2c3nc4ccccc4cc3-c3nc4ccccc4nc32)cc1 (stereo unspecified) | > 32.4 | > 32.4 | – |
| O=C(O)C1C(C(=O)O)C2C3C4C1C1C2C3C41 (stereo unspecified) | – | – | inactive |
| CSc1n[nH]c(NC(=O)c2ccccc2CS)n1 | > 64.6 | > 64.6 | – |
| C=C1c2nc3ccccc3n2C=C(c2ccc(OC)cc2)N1c1ccccc1 | > 200 | 3.8 | – |

| Structure (SMILES) | EC50 [µM] | IC50 [µM] | outcome |
| --- | --- | --- | --- |
| N/N=C(/Cc1ccccc1)NNO | > 525 | 174 | – |
| CCCCCCO/N=C\c1c2c(O)c3c(O)c(C)c4c(c3c1O)C(=O)C(C)(O/C=C\C(OC)C(C)C(OC(C)=O)C(C)C(O)C(C)C(O)C(C)/C=C\C=C(\C)C(=O)N2)O4 (stereo unspecified) | > 200 | 5.37 | – |
| N=C(N)Cc1ccc(NC(=O)c2ccc(C(=O)Nc3ccc(CC(=N)N)cc3)cc2)cc1 | > 70.8 | 22.4 | – |
| CC(C)c1ccc(Cc2ccc(C(C)C)c(NC(=O)C(=O)Cc3cnc4ccccc4n3)c2C(C)C)c(C(C)C)c1NC(=O)C(=O)Cc1cnc2ccccc2n1 | > 13.2 | > 13.2 | – |
| CN(C)CCn1cnc2ncccc2c1=O | – | – | inactive |
| O=C1Nc2ccccc2N=CC1NC(=O)C(c1ccccc1)c1ccccc1 (stereo unspecified) | > 257 | 224 | – |
| CCC1=NS(=O)(=O)c2c(ncn2C)N1 | > 1150 | > 1150 | – |
| CC12CCCCC1CC(=O)/C(=C\O)C2 (stereo unspecified) | > 200 | 77.6 | – |
| N#Cc1c(-c2ccccc2)cc(-c2ccccc2)n(C2OCC(O)C(O)C2O)c1=S (stereo unspecified) | > 200 | 21.4 | – |
| O=C(CCCn1cnc([N+](=O)[O-])n1)NCCCn1ccnc1[N+](=O)[O-] | > 200 | > 200 | – |
| COc1cc2cc(C(=O)N3CC(CCl)c4ccc([N+](C)(C)Cc5ccccc5[N+](=O)[O-])cc43)[nH]c2c(OC)c1OC (stereo unspecified) | > 20 | 2.24 | – |
| COc1cc(NS(C)(=O)=O)ccc1Nc1c2ccccc2nc2ccccc12 | – | – | inactive |
| Nc1nc2c(ncn2C2OC(CO)(C(F)(F)F)C(O)C2O)c(=O)[nH]1 (stereo unspecified) | > 200 | > 200 | – |
| O=C1/C(=C\c2cccc(Oc3ccccc3)c2)SC(c2ccccc2)N1c1ccccc1Cl (stereo unspecified) | > 20 | – | – |
| CCCCNC(=S)Nc1nc(C(=O)NNC(=S)NC2CCCCC2)cs1 | > 200 | 170 | – |
| Cn1c(=O)c2c3oc(=O)cc(O)c3c(=O)n3c4ccccc4n(c1=O)c23 | > 2.14 | > 2.14 | – |
| CC(O)CN1c2ccccc2Sc2ccccc21 (stereo unspecified) | > 200 | > 200 | – |
| COC1/C=C/OC2(C)Oc3c(C)c(O)c4c(O)c(c(/C=N/N(C)C(C)C(O)c5ccccc5)c(O)c4c3C2=O)NC(=O)C(C)=C/C=C/C(C)C(O)C(C)C(O)C(C)C(OC(C)=O)C1C (stereo unspecified) | > 200 | 9.55 | – |
| CC(C)c1cc2c(O)c(c1)Cc1cc(C(C)C)cc(c1O)Cc1cc(C(C)C)cc(c1O)Cc1cc(C(C)C)cc(c1O)C2 | > 6.31 | > 6.31 | – |
| O=C1OCCOCCOC(=O)c2cccc(n2)C(=O)OCCOCCOC(=O)c2cccc1n2 | > 525 | > 525 | – |
| CCC12C=CCN3CCC4(c5cc(C(c6ccc(OC)cc6)c6cc7ccccc7n6S(=O)(=O)c6ccccc6)c(OC)cc5N(C)C4C(O)(C(=O)OC)C1OC(C)=O)C32 (stereo unspecified) | > 8.71 | > 8.71 | – |
| O=C(COc1ccc(OCC(=O)N2C(=O)CC(=O)N(c3ccc(Cl)cc3)C2=S)cc1)N1C(=O)CC(=O)N(c2ccc(Cl)cc2)C1=S | > 200 | 42.7 | – |
| C[N+](C)(CCNc1ccc(NCC[N+](C)(C)Cc2ccc([N+](=O)[O-])cc2)c2c1C(=O)c1ccccc1C2=O)Cc1ccc([N+](=O)[O-])cc1 | > 151 | > 151 | – |
| Nc1ccc(C(=Nc2ccccc2)c2ccc(N)cc2)cc1 | – | – | inactive |
| O=C(Nc1cc(S(=O)(=O)O)cc2cc(S(=O)(=O)O)c(N=Nc3cc(Nc4nc(Cl)nc(Nc5ccc(S(=O)(=O)O)cc5)n4)ccc3S(=O)(=O)O)c(O)c12)c1ccccc1 | – | – | inactive |
